Reference: ChEMBL document CHEMBL4483862, “Open-source discovery of chemical leads for next-generation chemoprotective antimalarials” (2018)

System: Plasmodium berghei
Experiment: Luciferase/luciferin-expressing antifolate-resistant parasites were used to infect a culture of HepG2 cells that were pre-incubated with compounds. Infected hepatocytes emit light due to the luciferase reaction. Assay results are presented as the percent inhibition of light emission compared to control. […]
Assay type: functional
Conditions: sporozoite; for IC90: read-out: LUCIFERASE INFECTION ASSAY - IC90

SMILES	IC90 [µM]	further results
CCOC(=O)c1cnc2c([N+](=O)[O-])cccc2c1O	4	IC50 (PBLUC_HILL_SLOPE 2.74, PBLUC_R_SQUARED 0.626, read-out: LUCIFERASE INFECTION ASSAY - IC50): 1.79 µM
Cc1ccc(S(=O)(=O)N2c3ccc(S(N)(=O)=O)cc3CC2C)cc1 (stereo not given)	> 9.01	IC50 (PBLUC_HILL_SLOPE 2.71, PBLUC_R_SQUARED 0.472, read-out: LUCIFERASE INFECTION ASSAY - IC50): 4.01 µM
O=C(Nc1ccc(Oc2ccc(C(F)(F)F)cn2)c(Cl)c1)C1CC1	4.36	IC50 (PBLUC_HILL_SLOPE 2.75, PBLUC_R_SQUARED 0.594, read-out: LUCIFERASE INFECTION ASSAY - IC50): 1.96 µM
CN1C(c2ccc(F)cc2)=CS/C1=C(/C#N)c1nnc(N2CCOCC2)n1-c1ccccc1	> 10	IC50 (PBLUC_HILL_SLOPE 2.7, PBLUC_R_SQUARED 0.681, read-out: LUCIFERASE INFECTION ASSAY - IC50): 6.9 µM
COc1ccccc1NC(=O)Nc1nc(C(N)CCc2ccccc2)cs1 (stereo not given)	> 8.63	IC50 (PBLUC_HILL_SLOPE 2.77, PBLUC_R_SQUARED 0.721, read-out: LUCIFERASE INFECTION ASSAY - IC50): 5.07 µM
OC(CN1CCN(CC(O)Cn2c3ccccc3c3ccccc32)CC1)Cn1c2ccccc2c2ccccc21 (stereo not given)	> 6.2	IC50 (PBLUC_HILL_SLOPE 2.73, PBLUC_R_SQUARED 0.624, read-out: LUCIFERASE INFECTION ASSAY - IC50): 3.03 µM
CCn1ncc2c(C(=O)Nc3ccc(-c4cn5ccsc5n4)cc3)cc(-c3cccs3)nc21	> 10	IC50 (PBLUC_HILL_SLOPE 2.78, PBLUC_R_SQUARED 0.317, read-out: LUCIFERASE INFECTION ASSAY - IC50): 7.98 µM
Cc1ccc(-c2nc3c(c(SCCN4CCCC4)n2)COC(C)(C)C3)cc1	> 8.6	IC50 (PBLUC_HILL_SLOPE 2.75, PBLUC_R_SQUARED 0.0927, read-out: LUCIFERASE INFECTION ASSAY - IC50): 7.13 µM
CN1N=C(SCc2ccc(Cl)cc2Cl)Sc2c1cnn(C)c2=O	> 8.52	IC50 (PBLUC_HILL_SLOPE 2.78, PBLUC_R_SQUARED 0.171, read-out: LUCIFERASE INFECTION ASSAY - IC50): 5.14 µM
Cc1ccc(Nc2nc(N)nc(CN(C)Cc3nc(=O)c4ccccc4[nH]3)n2)cc1	8.22	IC50 (PBLUC_HILL_SLOPE 2.75, PBLUC_R_SQUARED 0.503, read-out: LUCIFERASE INFECTION ASSAY - IC50): 3.7 µM
Clc1ccc(OCCN2CCN(c3ccc4nnnn4n3)CC2)cc1	> 10	IC50 (PBLUC_HILL_SLOPE 2.76, PBLUC_R_SQUARED 0.489, read-out: LUCIFERASE INFECTION ASSAY - IC50): 6.13 µM
COc1ccc(CN(Cc2n/c(=N\c3ccccc3C)nc(N)[nH]2)Cc2n/c(=N\c3ccccc3C)nc(N)[nH]2)cc1OC	4.51	IC50 (PBLUC_HILL_SLOPE 2.79, 12.2, PBLUC_R_SQUARED 0.127, 0.675, read-out: LUCIFERASE INFECTION ASSAY - IC50): 2.77 µM
COc1ccc(C(CNC(=O)c2ccccc2-c2ncc(-c3ccccc3)o2)N(C)C)cc1 (stereo not given)	> 10	IC50 (PBLUC_HILL_SLOPE 2.7, PBLUC_R_SQUARED 0.455, read-out: LUCIFERASE INFECTION ASSAY - IC50): 5.19 µM
OCc1ccc(-c2cn3c(-c4ccc(Oc5ccccc5)cc4)cnc3cn2)cc1	> 8.39	IC50 (PBLUC_HILL_SLOPE 2.74, PBLUC_R_SQUARED 0.523, read-out: LUCIFERASE INFECTION ASSAY - IC50): 5.32 µM
COc1ccc(C(C)(C)C)cc1NC(=O)C(=O)c1c(-c2ccccc2)cc2ccccn12	8.89	IC50 (PBLUC_HILL_SLOPE 2.71, PBLUC_R_SQUARED 0.442, read-out: LUCIFERASE INFECTION ASSAY - IC50): 3.95 µM
CC(C)CNC1=C(Cl)C(=O)c2ccccc2C1=O	> 12.5	IC50 (PBLUC_HILL_SLOPE 2.71, PBLUC_R_SQUARED 0.283, read-out: LUCIFERASE INFECTION ASSAY - IC50): 11.4 µM
CCN(CC)S(=O)(=O)c1ccc(C(C)NC(=O)c2cn(C)c3ccccc23)cc1 (stereo not given)	6.07	IC50 (PBLUC_HILL_SLOPE 2.76, PBLUC_R_SQUARED 0.764, read-out: LUCIFERASE INFECTION ASSAY - IC50): 2.73 µM
COc1ccc(-c2cnc3cnc(-c4cccc(NC(C)=O)c4)cn23)cc1	> 9.21	IC50 (PBLUC_HILL_SLOPE 2.77, PBLUC_R_SQUARED 0.737, read-out: LUCIFERASE INFECTION ASSAY - IC50): 4.22 µM
COc1cccc(-c2cc3c(Nc4cccc(OC(C)C)c4)nccc3n2C)c1	> 10	IC50 (PBLUC_HILL_SLOPE 2.76, PBLUC_R_SQUARED 0.246, read-out: LUCIFERASE INFECTION ASSAY - IC50): 6.87 µM
CC(C)(C)c1ccc(CSc2nncn2-c2ccc(OCc3ccccc3)cc2)cc1	> 7.68	IC50 (PBLUC_HILL_SLOPE 2.75, PBLUC_R_SQUARED 0.0661, read-out: LUCIFERASE INFECTION ASSAY - IC50): 5.39 µM

SMILES	IC90 [µM]	further results
CCc1cc2c(Nc3ccc4c(c3)OCO4)nc(C)nc2s1	> 10	IC50 (PBLUC_HILL_SLOPE 2.79, PBLUC_R_SQUARED 0.532, read-out: LUCIFERASE INFECTION ASSAY - IC50): 6.73 µM
Cc1ccc(-n2[nH]c(C)c(C=Nc3ccc(OC(F)(F)F)cc3)c2=O)cc1	> 8.79	IC50 (PBLUC_HILL_SLOPE 2.73, PBLUC_R_SQUARED 0.732, read-out: LUCIFERASE INFECTION ASSAY - IC50): 4.57 µM
Cc1cc(C(=O)Cn2c(C(C)O)nc3ccccc32)c(C)n1-c1ccc(F)c(Cl)c1 (stereo not given)	> 10	IC50 (PBLUC_HILL_SLOPE 2.79, PBLUC_R_SQUARED 0.449, read-out: LUCIFERASE INFECTION ASSAY - IC50): 7.26 µM
COc1cccc(Nc2nccc3nc(-c4cccc(C)c4)[nH]c23)c1	> 10	IC50 (PBLUC_HILL_SLOPE 2.7, PBLUC_R_SQUARED 0.647, read-out: LUCIFERASE INFECTION ASSAY - IC50): 6.02 µM
CCOc1cc2c(cc1CNC(=O)c1cnc3cc(C)nn3c1C)OC(C)C2 (stereo not given)	4.78	IC50 (PBLUC_HILL_SLOPE 2.71, PBLUC_R_SQUARED 0.828, read-out: LUCIFERASE INFECTION ASSAY - IC50): 2.13 µM
c1ccc2c(c1)[nH]c1nc(SCc3cn4ccsc4n3)nnc12	1.85	IC50 (PBLUC_HILL_SLOPE 2.76, PBLUC_R_SQUARED 0.824, read-out: LUCIFERASE INFECTION ASSAY - IC50): 0.836 µM
CCN1CCc2nc(NC(=O)c3ccccc3Nc3ccc(F)cc3)sc2C1	8.04	IC50 (PBLUC_HILL_SLOPE 2.71, PBLUC_R_SQUARED 0.663, read-out: LUCIFERASE INFECTION ASSAY - IC50): 3.58 µM
COc1cc(OC)c2[nH]c(C(=O)Nc3ccc(-n4cccn4)cc3)cc2c1	> 10	IC50 (PBLUC_HILL_SLOPE 2.78, PBLUC_R_SQUARED 0.238, read-out: LUCIFERASE INFECTION ASSAY - IC50): 6.45 µM
O=S(=O)(c1ccc(Cl)c(NC(=S)N/N=C/c2ccc3ncccc3c2)c1)N1CCOCC1	> 10	IC50 (PBLUC_HILL_SLOPE 2.75, PBLUC_R_SQUARED 0.637, read-out: LUCIFERASE INFECTION ASSAY - IC50): 5.55 µM
CCN(CC)CCn1c(NC(=O)c2cnc3c(cnn3C(C)C)c2)nc2ccccc21	6.55	IC50 (PBLUC_HILL_SLOPE 2.78, PBLUC_R_SQUARED 0.504, read-out: LUCIFERASE INFECTION ASSAY - IC50): 2.97 µM
Cc1cc(C)cc(C(=O)NCC(=O)N(C)Cc2cn(-c3ccccc3)nc2-c2ccccc2)c1	> 10	IC50 (PBLUC_HILL_SLOPE 2.80, 14.9, PBLUC_R_SQUARED 0.685, 0.405, read-out: LUCIFERASE INFECTION ASSAY - IC50): 7.57 µM
CC(=O)c1cccc(-c2cnc3cnc(-c4ccccc4)cn23)c1	> 10.5	IC50 (PBLUC_HILL_SLOPE 2.79, PBLUC_R_SQUARED 0.249, read-out: LUCIFERASE INFECTION ASSAY - IC50): 9.07 µM
CC(C)NC(=O)c1c(NC(=O)c2cc(F)ccc2F)nc2ccccn12	> 9.21	IC50 (PBLUC_HILL_SLOPE 2.78, PBLUC_R_SQUARED 0.497, read-out: LUCIFERASE INFECTION ASSAY - IC50): 6.02 µM
CC(Oc1ccc(-c2ccc(C#N)cc2)cc1)C(=O)C12CC3CC(CC(C3)C1)C2 (stereo not given)	> 10	IC50 (PBLUC_HILL_SLOPE 2.77, PBLUC_R_SQUARED 0.53, read-out: LUCIFERASE INFECTION ASSAY - IC50): 5.65 µM
Cn1ccc(NC(=O)c2cccc(S(=O)(=O)N(Cc3ccccc3)c3ccccc3Cl)c2)n1	> 10	IC50 (PBLUC_HILL_SLOPE 2.72, PBLUC_R_SQUARED 0.559, read-out: LUCIFERASE INFECTION ASSAY - IC50): 4.88 µM
COc1cc(OC)c(OC)cc1CNC(=O)c1ccc2[nH]c3c(c2c1)CCCC3	> 10	IC50 (PBLUC_HILL_SLOPE 2.72, PBLUC_R_SQUARED 0.276, read-out: LUCIFERASE INFECTION ASSAY - IC50): 9.2 µM
O=C(c1cc(-c2cccc3ccccc23)nc2ccccc12)N1CCN(c2ncccn2)CC1	> 10	IC50 (PBLUC_HILL_SLOPE 2.78, PBLUC_R_SQUARED 0.395, read-out: LUCIFERASE INFECTION ASSAY - IC50): 8.3 µM
Cc1cc(NCCN(C)C)n2nc(C(F)(F)F)c(-c3ccccc3)c2n1	> 9.08	IC50 (PBLUC_HILL_SLOPE 2.75, PBLUC_R_SQUARED 0.0665, read-out: LUCIFERASE INFECTION ASSAY - IC50): 5.68 µM
CCN(CC)S(=O)(=O)c1ccc(N2CCOCC2)c(NC(=O)c2oc3ccccc3c2C)c1	9.03	IC50 (PBLUC_HILL_SLOPE 2.77, PBLUC_R_SQUARED 0.561, read-out: LUCIFERASE INFECTION ASSAY - IC50): 4.08 µM
Fc1ccc(-c2nc3ccnc(Nc4ccccc4)c3[nH]2)cc1F	> 10	IC50 (PBLUC_HILL_SLOPE 2.79, PBLUC_R_SQUARED 0.219, read-out: LUCIFERASE INFECTION ASSAY - IC50): 5.41 µM
